From BindingDB's records for doi:10.1021/jm00394a026 (Wyeth Laboratories, 1987)

Target: Arachidonate 5-lipoxygenase (Rattus norvegicus)
Assay: Ability to inhibit 5-lipoxygenase in rat

CN1C[C@@H](c2cccc(OCc3ccc4ccccc4n3)c2)OC1=O
IC50: 19.6 µM
